The assay has as its target T1, Estrogen Receptor Alpha (ERα) (Homo sapiens, UniProt P03372, Y537S).
T1 sequence (P03372 282-595 Y537S): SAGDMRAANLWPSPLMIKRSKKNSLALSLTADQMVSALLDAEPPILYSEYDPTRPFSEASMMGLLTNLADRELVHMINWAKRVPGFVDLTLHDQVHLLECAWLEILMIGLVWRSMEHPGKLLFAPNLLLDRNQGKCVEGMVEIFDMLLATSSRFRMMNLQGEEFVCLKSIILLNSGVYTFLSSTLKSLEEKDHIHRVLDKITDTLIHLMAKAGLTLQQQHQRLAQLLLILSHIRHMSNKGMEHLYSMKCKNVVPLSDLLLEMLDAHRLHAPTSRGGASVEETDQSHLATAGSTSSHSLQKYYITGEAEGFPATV
The experiment in a line: LanthaScreen TR-FRET competitive binding assay with purified GST-ERα LBD. On the technique in general: Time-resolved FRET reads energy transfer from a long-lived donor to a nearby acceptor.

As usually defined, the pIC50 is the negative decadic logarithm of the IC50, by convention in mol/L. A higher pIC50 goes with a low IC50.

pIC50: −log10 of the molar value.

`CCC(=C(c1ccc(/C=C/C(=O)O)cc1)c1ccc(B(O)O)cc1)c1ccccc1` [GLL398]: the pIC50 is 7.53.

These data come from PMC7069796 (Breast cancer research and treatment, 2020).
